Measured values published in article PMC9060023 (Skin Health and Disease, 2021).

Tests used:
[1] = molecular target: T1, human MC2R (hMC2R) (Homo sapiens, UniProt Q01718); experiment: Cyclic AMP assay in CHO-K1 cells expressing human MC2R and MRAP; format: cell-based; details: data not shown, read-out: EC50 agonistic activity (cAMP)
T1 construct: host or cells: CHO-K1

[2] = molecular target: T2, cynomolgus monkey MC1R (cmMC1R) (Macaca fascicularis, UniProt A3KF53); experiment: Cyclic AMP assay in HEK293 cells stably expressing cmMC1R; format: cell-based; details: cmMC1R on HEK293; geometric mean of three experiments; read-out: EC50 agonistic activity (cAMP)
T2 sequence (A3KF53 1-317): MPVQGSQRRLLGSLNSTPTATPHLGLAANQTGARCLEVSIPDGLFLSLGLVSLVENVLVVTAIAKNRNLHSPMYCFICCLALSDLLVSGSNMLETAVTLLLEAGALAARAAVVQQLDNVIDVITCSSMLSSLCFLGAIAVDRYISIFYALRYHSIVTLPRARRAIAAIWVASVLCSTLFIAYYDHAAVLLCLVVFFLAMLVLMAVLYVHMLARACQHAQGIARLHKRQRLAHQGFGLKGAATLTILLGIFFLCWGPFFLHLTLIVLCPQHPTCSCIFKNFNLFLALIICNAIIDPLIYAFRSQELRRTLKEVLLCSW
Method: (§2) The site‐specific integration of each MCR gene was carried out in accordance with the Jump‐In^TM TI^TM Gateway® Targeted Integration System user guide (www.lifetechnologies.com) except replacement of tetracycline‐induced CMV promoter into SV40 promoter in MCR expression vector as previously described.[15] This technology enables stable single copy integration at the same location in the genome, equalising expression levels. CHO‐K1 cells expressing human MC2R and accessory protein MRAP were prepared by EuroscreenFast (Gosselies, Belgium).
(§3) Hanks' balanced salt solution containing 1% bovine serum albumin and 10 mmol/l HEPES was prepared and used as an assay buffer. Cells were suspended in the assay buffer containing 0.5 mmol/l 3‐isobutyl‐1‐methylxanthine (Calbiochem) and plated into a microplate. Serially diluted test substances were then added and incubated for 30 min at 37°C. Concentrations of cAMP in the cells were quantified using the cAMP dynamic 2 kit (Cisbio Bioassays) by measuring fluorescence.

[3] = Tissue distribution study in rats; format: in vivo, rat; details: data not shown
[4] = Pharmacokinetic study, 4 weeks repeated oral dosing in cynomolgus monkeys; format: in vivo, cynomolgus monkey; details: for Cmax / Tmax / AUC(0-t): female, cynomolgus monkey, plasma; for AUC(0-t): read-out: AUC0–24 h
[5] = test system: cynomolgus monkeys (Macaca fascicularis); experiment: Pigmentation on the facial skin of cynomolgus monkeys (colorimeter, ΔL*); format: in vivo, cynomolgus monkey
Method: This study was conducted in compliance with the ‘Act on Welfare and Management of Animals’ in Japan and the ‘Guidance for Animal Care and Use’ and in accordance with the protocol reviewed by the Institutional Animal Care and Use Committee of the test facility, which is fully accredited by AAALAC International. […] The measurement site (cheek) was the same site on the face for all animals. […] The ΔL* represents the differences of individual L* values between each time point and pre‐test.

[6] = test system: C57BL/6J-Ay/+ mice (Ay/a mice); experiment: Coat colour darkening in Ay/a mice; format: in vivo, mouse; details: for Coat colour of all mice: 6 consecutive days
Method: (§1) Unless noted otherwise, 3‐week‐old male C57BL/6J‐A^y/+ mice (Ay/a mice) were purchased from Japan SLC, Inc. Mice were housed under specific pathogen‐free conditions, and all animal experiments were conducted according to the Guidelines for Animal Experimentation at our institute. On day 0, the coat of the lower back was shaved, and animals were allocated to experimental groups. […] Assessment of coat colour of the shaved area on day 6 was performed macroscopically in a blinded manner. The dorsal skins were dissected and fixed in a neutralised formalin then embedded in paraffin. Melanin production in the hair roots of the dorsal skin was histologically evaluated by Fontana‐Masson staining.

[7] = test system: human MC1R (hMC1R); experiment: Cyclic AMP assay in HEK293 cells stably expressing hMC1R; format: cell-based; details: wild type and variants
Method: as §2, §3

[8] = test system: B16F1 mouse melanoma cell line; experiment: Melanin production in B16F1 cell line; format: cell-based; details: B16-F1, 72 h, read-out: EC50 of melanin production (95% confidence interval)
Method: Dulbecco's modified Eagle medium without phenol red (Life Technologies), containing 10% foetal bovine serum (Gibco) and 100 U/ml of penicillin‐streptomycin (Gibco), was used as the assay medium. Cells (1.5 × 10^4) were seeded into a 96‐well culture plate. Serially diluted test substances were added to the plate and incubated at 37°C in a humidified 5% CO2 incubator for 3 days.

[9] = test system: melanocytes in face; experiment: Chronic toxicity study, histopathology of melanocytes in face; format: in vivo; details: chronic toxicity study in non-rodent species; data not shown
[10] = test system: Tyr, Trp1 and Dct genes; experiment: Expression of melanogenesis genes in pinnae of Ay/a mice (quantitative real-time PCR); format: in vivo, mouse
Method: as §1
Total RNA was extracted using the Qiagen RNeasy Mini Kit (Qiagen), and quantitative real‐time PCR for Tyr, Trp1 and Dct was performed using the One Step SYBR PrimeScript PLUS RT‐PCR Kit (Takara Bio). Hypoxanthine phosphoribosyltransferase 1 (Hprt) was used as an endogenous control for normalisation. The ΔCT method was used to determine the relative expression levels. All PCR primers were purchased from Takara Bio with following product codes, MA153806 (Tyr), MA129755 (Trp1), MA118342 (Dct) and MA031262 (Hprt).

[11] = Pharmacokinetic study, single oral dose in Ay/a mice; format: in vivo, mouse; details: for Cmax: Ay/a, mouse, po; for Cmax / Tmax / AUC(0-t): plasma; for AUC(0-t): read-out: AUC0–8 h
[12] = molecular target: T3, rat MC1R (Rattus norvegicus, UniProt B6ZGR5); experiment: Cyclic AMP assay in HEK293 cells stably expressing rat MC1R; format: cell-based; details: data not shown, read-out: EC50 agonistic activity (cAMP)
T3 construct: expressed in transfected cells; host or cells: HEK293 (Jump-In TI Gateway targeted integration, SV40 promoter)
T3 sequence (B6ZGR5 1-317): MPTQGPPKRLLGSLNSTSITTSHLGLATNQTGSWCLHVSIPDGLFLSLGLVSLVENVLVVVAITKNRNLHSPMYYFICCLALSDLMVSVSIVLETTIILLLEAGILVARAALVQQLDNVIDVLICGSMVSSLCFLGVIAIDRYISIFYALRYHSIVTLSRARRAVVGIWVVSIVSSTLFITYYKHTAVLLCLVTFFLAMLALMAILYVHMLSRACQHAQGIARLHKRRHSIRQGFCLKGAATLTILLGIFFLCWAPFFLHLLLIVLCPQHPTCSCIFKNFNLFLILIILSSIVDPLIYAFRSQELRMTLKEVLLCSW

[13] = Ay/a mouse, male, 0.03 mg/kg oral, day 1
[14] = Ay/a mouse, male, 0.3 mg/kg oral, day 1

T1 sequence (Q01718 whole entry): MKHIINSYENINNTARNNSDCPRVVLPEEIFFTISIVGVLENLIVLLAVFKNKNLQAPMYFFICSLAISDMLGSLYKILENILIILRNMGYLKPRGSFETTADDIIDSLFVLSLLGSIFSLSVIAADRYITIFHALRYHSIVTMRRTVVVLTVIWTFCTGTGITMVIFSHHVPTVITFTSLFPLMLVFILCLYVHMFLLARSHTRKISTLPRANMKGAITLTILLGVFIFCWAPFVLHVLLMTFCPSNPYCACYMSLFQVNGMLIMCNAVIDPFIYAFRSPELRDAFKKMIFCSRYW
T1 sequence (Q8TCY5 whole entry partner): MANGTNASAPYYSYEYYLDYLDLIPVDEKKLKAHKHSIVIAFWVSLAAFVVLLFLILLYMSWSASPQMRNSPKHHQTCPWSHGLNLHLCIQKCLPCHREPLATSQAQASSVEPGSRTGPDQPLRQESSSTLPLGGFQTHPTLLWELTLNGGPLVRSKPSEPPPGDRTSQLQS

Q: With COC[C@H]1CN(C(=O)[C@]2(F)CN(C3CCCC3)C[C@H]2c2ccc(OC)cc2)C[C@@H]1c1ccc(C(F)(F)F)cc1N1CCC(C(=O)O)CC1 [MT‐7117, dersimelagon] as the molecule, how does the EC50 [1] read?
A: Its EC50 is greater than 10000 nM.

Q: What about the EC50 [2] of the same molecule?
A: The EC50 was 3.91 nM.

Q: What about the “Distribution into the brain” value [3] of the same molecule?
A: The value was “less likely to be distributed into the brain”.

Q: And the Cmax ([4]; monkeys, repeated oral dosing 1 mg/kg, read-out: Cmax in molar units)?
A: The Cmax was 78 nM.

Q: What about the “Increase of plasma levels with dose” value ([4]; monkeys, 1, 3 and 10 mg/kg) of the same molecule?
A: The value was “greater than a dose‐proportional increase”.

Q: And the Tmax ([4]; 1 mg/kg oral, day 28)?
A: Its Tmax is 2.6 h.

Q: What about the AUC(0-t) ([4]; 1 mg/kg oral, day 28) of the same molecule?
A: Its AUC(0-t) is 428 ng·h/mL.

Q: And the Cmax ([4]; 1 mg/kg oral, day 28, read-out: C max)?
A: Its Cmax is 53 ng/mL.

Q: And the Tmax ([4]; 3 mg/kg oral, day 28)?
A: Its Tmax is 1 h.

Q: And the AUC(0-t) ([4]; 3 mg/kg oral, day 28)?
A: Its AUC(0-t) is 2510 ng·h/mL.

Q: And the Cmax ([4]; 3 mg/kg oral, day 28, read-out: C max)?
A: The Cmax was 401 ng/mL.

Q: What about the Tmax ([4]; 10 mg/kg oral, day 28) of the same molecule?
A: The Tmax was 1.8 h.

Q: What about the AUC(0-t) ([4]; 10 mg/kg oral, day 28) of the same molecule?
A: Its AUC(0-t) is 14100 ng·h/mL.

Q: What about the Cmax ([4]; 10 mg/kg oral, day 28, read-out: C max) of the same molecule?
A: Its Cmax is 1510 ng/mL.

Q: What about the “Time of dosing after which ΔL* decrease was statistically significant versus vehicle” value ([5]; 10 mg/kg/day oral) of the same molecule?
A: The value was 3 weeks.

Q: And the “Time after cessation of treatment at which pigmentation diminished” value ([5]; 30 mg/kg group)?
A: Its value is 16 weeks.

Q: What about the “Time of dosing after which ΔL* decrease was statistically significant versus vehicle” value ([5]; 30 mg/kg/day oral) of the same molecule?
A: The value was 1 week.

Q: And the “Time after cessation of treatment at which pigmentation diminished” value ([5]; 1, 3 and 10 mg/kg groups)?
A: The value was 4 weeks.

Q: And the “Time of dosing after which ΔL* decrease was statistically significant versus vehicle” value ([5]; 1 and 3 mg/kg/day oral)?
A: Its value is 4 weeks.

Q: And the “Minimum effective dose for skin pigmentation of monkeys” value ([5]; oral, once daily)?
A: Its value is 1 mg/kg.

Q: What about the “Dose that induced significant skin pigmentation in monkeys” value ([5]; p.o.) of the same molecule?
A: The value was no less than 1 mg/kg/day.

Q: And the “Coat colour of all mice” value ([6]; 0.3 mg/kg orally)?
A: The value was “black”.

Q: What about the “Coat colour of all mice” value ([6]; 3 mg/kg orally) of the same molecule?
A: The value was “black”.

Q: What about the “Pigment in the hair root (Fontana-Masson staining of dorsal skin)” value ([6]; 3 mg/kg, day 6) of the same molecule?
A: The value was “black”.

Q: And the “Minimum effective dose for darkening of coat colour of mice” value ([6]; oral, Ay/a mice)?
A: The value was 0.3 mg/kg.

Q: And the “Dose that significantly induced coat colour darkening in mice” value ([6]; p.o.)?
A: Its value is no less than 0.3 mg/kg/day.

Q: And the “Emax of cAMP production compared with αMSH” value [7]?
A: Its value is “same level as that of the endogenous agonist αMSH”.

Q: And the EC50 [8]?
A: The EC50 was 0.013 nM.

Q: What about the “Histopathological change for melanocytes in face” value [9] of the same molecule?
A: Its value is “no histopathological change”.

Q: What about the “Expression of Tyr, Trp1 and Dct genes in pinnae” value ([10]; 0.3 mg/kg single oral dose, 24 h) of the same molecule?
A: The value was “tendency towards gene upregulation”.

Q: What about the “Expression of Tyr, Trp1 and Dct genes in pinnae” value ([10]; 3 mg/kg single oral dose, 24, 48 and 72 h, relative to Hprt) of the same molecule?
A: The value was “significantly upregulated”.

Q: What about the C max ([11]; Ay/a mouse, male, 0.3 mg/kg oral, day 1, 0.3 mg/kg) of the same molecule?
A: Its C max is 5.62 ng/mL.

Q: And the Cmax ([11]; male, 0.03 mg/kg, Ay/a mouse, male, 0.03 mg/kg oral, day 1, read-out: C max)?
A: The Cmax was 0.668 ng/mL.

Q: What about the Cmax ([11]; male, 0.3 mg/kg, Ay/a mouse, male, 0.3 mg/kg oral, day 1, read-out: C max) of the same molecule?
A: Its Cmax is 5.6 ng/mL.

Q: And the Cmax ([11]; male, 0.3 mg/kg, mice, single oral dose 0.3 mg/kg, read-out: Cmax in molar units)?
A: Its Cmax is 8.3 nM.

Q: What about the “Increase of plasma levels with dose” value ([11]; mice, 0.03 and 0.3 mg/kg) of the same molecule?
A: Its value is “dose‐proportional manner”.

Q: What about the Tmax [11, 13] of the same molecule?
A: Its Tmax is 0.5 h.

Q: And the AUC(0-t) [11, 13]?
A: Its AUC(0-t) is 2.62 ng·h/mL.

Q: And the Tmax [11, 14]?
A: The Tmax was 2 h.

Q: What about the AUC(0-t) [11, 14] of the same molecule?
A: The AUC(0-t) was 31.8 ng·h/mL.

Q: And the EC50 [12]?
A: Its EC50 is 0.251 nM.
